Source: the supplement of paper PMC10733146

What was measured:
Experiment in all cases: viability relative to DMSO control (fraction); higher = less drug effect (more viable cells)
Details in all cases: 48 h
[1] = test system: primary DLBCL patient cells (S076)
Summary of the method: (§1)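 Viability is given as CellTiter-Glo luminescence relative to the median of 16 inner DMSO wells. Fresh or cryopreserved primary mononuclear tumour cells from blood, bone marrow (both Ficoll-isolated) or processed lymph node were plated at 4 × 10^4 cells per well in 384-well plates against five pre-plated compound concentrations, one well each. Incubation lasted 48 h at 37 °C and 5% CO2 in RPMI-1640 with penicillin/streptomycin, L-glutamine and human serum.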

[2] = test system: primary AML patient cells (S072)
Summary of the method: as §1

[3] = test system: primary AML patient cells (S071)
Summary of the method: as §1

[4] = test system: primary AML patient cells (S037)
Summary of the method: as §1

[5] = test system: primary T-NHL patient cells (S058)
Summary of the method: as §1

[6] = test system: primary MCL patient cells (S041)
Summary of the method: as §1

[7] = test system: primary AML patient cells (S025)
Summary of the method: as §1

[8] = test system: primary AML patient cells (S019)
Summary of the method: as §1

[9] = test system: primary AML patient cells (S091)
Summary of the method: as §1

[10] = test system: primary AML patient cells (S002)
Summary of the method: as §1

[11] = test system: primary DLBCL patient cells (S082)
Summary of the method: as §1

[12] = test system: primary AML patient cells (S089)
Summary of the method: as §1

[13] = test system: primary AML patient cells (S055)
Summary of the method: as §1

[14] = test system: primary AML patient cells (S009)
Summary of the method: as §1

[15] = test system: primary DLBCL patient cells (S049)
Summary of the method: as §1

[16] = test system: primary T-PLL patient cells (S008)
Summary of the method: as §1

[17] = test system: primary AML patient cells (S079)
Summary of the method: as §1

`Nc1nc(F)nc2c1ncn2[C@@H]1O[C@H](CO)[C@@H](O)[C@@H]1O` [Fludarabine] showed a viability ([1]; 0.016 µM) of 1.05, a viability ([1]; 0.08 µM) of 1.07 and a viability ([1]; 0.4 µM) of 0.772. For the same molecule, the viability ([1]; 2 µM) was 0.373, the viability ([1]; 10 µM) was 0.203 and the viability ([2]; 0.016 µM) was 1.02. For the same molecule, the viability ([2]; 0.08 µM) was 1.08, the viability ([2]; 0.4 µM) was 0.824 and the viability ([2]; 2 µM) was 0.724. For the same molecule, the viability ([2]; 10 µM) was 0.529, the viability ([3]; 0.016 µM) was 0.997 and the viability ([3]; 0.08 µM) was 0.973. The viability ([3]; 0.4 µM) was 0.491, the viability ([3]; 2 µM) was 0.195 and the viability ([3]; 10 µM) was 0.135. For the same molecule, the viability ([4]; 0.016 µM) was 1.25, the viability ([4]; 0.08 µM) was 0.999 and the viability ([4]; 0.4 µM) was 1.18. It also gave a viability ([4]; 2 µM) of 0.643, a viability ([4]; 10 µM) of 0.455 and a viability ([5]; 0.016 µM) of 1.15. For the same molecule, the viability ([5]; 0.08 µM) was 1.05, the viability ([5]; 0.4 µM) was 0.829 and the viability ([5]; 2 µM) was 0.288. The viability ([5]; 10 µM) was 0.133, the viability ([6]; 0.016 µM) was 1.05 and the viability ([6]; 0.08 µM) was 1.01. The viability ([6]; 0.4 µM) was 0.993, the viability ([6]; 2 µM) was 0.647 and the viability ([6]; 10 µM) was 0.149. For the same molecule, the viability ([7]; 0.016 µM) was 1.09, the viability ([7]; 0.08 µM) was 0.901 and the viability ([7]; 0.4 µM) was 0.506. It also gave a viability ([7]; 2 µM) of 0.275, a viability ([7]; 10 µM) of 0.169 and a viability ([8]; 0.016 µM) of 1.17. For the same molecule, the viability ([8]; 0.08 µM) was 0.967, the viability ([8]; 0.4 µM) was 0.605 and the viability ([8]; 2 µM) was 0.301. The viability ([8]; 10 µM) was 0.181, the viability ([9]; 0.016 µM) was 0.958 and the viability ([9]; 0.08 µM) was 1. For the same molecule, the viability ([9]; 0.4 µM) was 0.737, the viability ([9]; 2 µM) was 0.405 and the viability ([9]; 10 µM) was 0.361. The viability ([10]; 0.016 µM) was 1.27, the viability ([10]; 0.08 µM) was 1.07 and the viability ([10]; 0.4 µM) was 0.9. It also gave a viability ([10]; 2 µM) of 0.457, a viability ([10]; 10 µM) of 0.313 and a viability ([11]; 0.016 µM) of 1.03. The viability ([11]; 0.08 µM) was 0.94, the viability ([11]; 0.4 µM) was 0.908 and the viability ([11]; 2 µM) was 0.588. For the same molecule, the viability ([11]; 10 µM) was 0.429, the viability ([12]; 0.016 µM) was 0.949 and the viability ([12]; 0.08 µM) was 1.18. It also gave a viability ([12]; 0.4 µM) of 0.878, a viability ([12]; 2 µM) of 0.597 and a viability ([12]; 10 µM) of 0.401. The viability ([13]; 0.016 µM) was 1.05, the viability ([13]; 0.08 µM) was 0.976 and the viability ([13]; 0.4 µM) was 0.937. For the same molecule, the viability ([13]; 2 µM) was 0.624, the viability ([13]; 10 µM) was 0.256 and the viability ([14]; 0.016 µM) was 0.952. It also gave a viability ([14]; 0.08 µM) of 0.86, a viability ([14]; 0.4 µM) of 0.59 and a viability ([14]; 2 µM) of 0.402. The viability ([14]; 10 µM) was 0.359, the viability ([15]; 0.016 µM) was 1.12 and the viability ([15]; 0.08 µM) was 1.11. For the same molecule, the viability ([15]; 0.4 µM) was 1.04, the viability ([15]; 2 µM) was 0.775 and the viability ([15]; 10 µM) was 0.375. The viability ([16]; 0.016 µM) was 0.988, the viability ([16]; 0.08 µM) was 1.02 and the viability ([16]; 0.4 µM) was 0.942. The viability ([16]; 2 µM) was 0.761, the viability ([16]; 10 µM) was 0.373 and the viability ([17]; 0.016 µM) was 1.05. For the same molecule, the viability ([17]; 0.08 µM) was 1.01, the viability ([17]; 0.4 µM) was 0.819 and the viability ([17]; 2 µM) was 0.453. For the same molecule, the viability ([17]; 10 µM) was 0.191.
For `CC[C@H](Nc1ncnc2[nH]cnc12)c1nc2cccc(F)c2c(=O)n1-c1ccccc1` [Idelalisib], the viability ([1]; 0.0032 µM) was 0.935, the viability ([1]; 0.016 µM) was 0.879 and the viability ([1]; 0.08 µM) was 0.825. For the same molecule, the viability ([1]; 0.4 µM) was 0.832, the viability ([1]; 2 µM) was 0.735 and the viability ([2]; 0.0032 µM) was 0.995. For the same molecule, the viability ([2]; 0.016 µM) was 0.883, the viability ([2]; 0.08 µM) was 0.922 and the viability ([2]; 0.4 µM) was 0.82. For the same molecule, the viability ([2]; 2 µM) was 0.803, the viability ([3]; 0.0032 µM) was 0.959 and the viability ([3]; 0.016 µM) was 0.868. The viability ([3]; 0.08 µM) was 0.812, the viability ([3]; 0.4 µM) was 0.733 and the viability ([3]; 2 µM) was 0.662. The viability ([4]; 0.0032 µM) was 0.976, the viability ([4]; 0.016 µM) was 1.03 and the viability ([4]; 0.08 µM) was 1.03. The viability ([4]; 0.4 µM) was 1.81, the viability ([4]; 2 µM) was 0.983 and the viability ([5]; 0.0032 µM) was 0.988. For the same molecule, the viability ([5]; 0.016 µM) was 0.916, the viability ([5]; 0.08 µM) was 0.961 and the viability ([5]; 0.4 µM) was 1.08. It also gave a viability ([5]; 2 µM) of 0.985, a viability ([6]; 0.0032 µM) of 0.949 and a viability ([6]; 0.016 µM) of 0.908. The viability ([6]; 0.08 µM) was 0.886, the viability ([6]; 0.4 µM) was 0.893 and the viability ([6]; 2 µM) was 0.887. The viability ([7]; 0.0032 µM) was 0.92, the viability ([7]; 0.016 µM) was 0.935 and the viability ([7]; 0.08 µM) was 0.959. It also gave a viability ([7]; 0.4 µM) of 1.14, a viability ([7]; 2 µM) of 0.924 and a viability ([8]; 0.0032 µM) of 1.02. It also gave a viability ([8]; 0.016 µM) of 0.936, a viability ([8]; 0.08 µM) of 1.01 and a viability ([8]; 0.4 µM) of 1.13. For the same molecule, the viability ([8]; 2 µM) was 0.996, the viability ([9]; 0.0032 µM) was 0.929 and the viability ([9]; 0.016 µM) was 0.838. It also gave a viability ([9]; 0.08 µM) of 0.773, a viability ([9]; 0.4 µM) of 0.697 and a viability ([9]; 2 µM) of 0.558. For the same molecule, the viability ([10]; 0.0032 µM) was 0.969, the viability ([10]; 0.016 µM) was 1.02 and the viability ([10]; 0.08 µM) was 0.957. For the same molecule, the viability ([10]; 0.4 µM) was 0.924, the viability ([10]; 2 µM) was 0.785 and the viability ([11]; 0.0032 µM) was 1.05. For the same molecule, the viability ([11]; 0.016 µM) was 0.893, the viability ([11]; 0.08 µM) was 0.812 and the viability ([11]; 0.4 µM) was 0.768. For the same molecule, the viability ([11]; 2 µM) was 0.668, the viability ([12]; 0.0032 µM) was 0.965 and the viability ([12]; 0.016 µM) was 0.739. For the same molecule, the viability ([12]; 0.08 µM) was 0.924, the viability ([12]; 0.4 µM) was 0.671 and the viability ([12]; 2 µM) was 0.58. It also gave a viability ([13]; 0.0032 µM) of 1, a viability ([13]; 0.016 µM) of 0.961 and a viability ([13]; 0.08 µM) of 0.909. It also gave a viability ([13]; 0.4 µM) of 0.972, a viability ([13]; 2 µM) of 0.875 and a viability ([14]; 0.0032 µM) of 0.985. For the same molecule, the viability ([14]; 0.016 µM) was 1.02, the viability ([14]; 0.08 µM) was 1.04 and the viability ([14]; 0.4 µM) was 0.998. The viability ([14]; 2 µM) was 0.905, the viability ([15]; 0.0032 µM) was 1.02 and the viability ([15]; 0.016 µM) was 1.02. The viability ([15]; 0.08 µM) was 0.968, the viability ([15]; 0.4 µM) was 1.02 and the viability ([15]; 2 µM) was 0.94. For the same molecule, the viability ([16]; 0.0032 µM) was 1, the viability ([16]; 0.016 µM) was 0.97 and the viability ([16]; 0.08 µM) was 1.03. It also gave a viability ([16]; 0.4 µM) of 0.99, a viability ([16]; 2 µM) of 0.992 and a viability ([17]; 0.0032 µM) of 1.01. It also gave a viability ([17]; 0.016 µM) of 0.954, a viability ([17]; 0.08 µM) of 0.906 and a viability ([17]; 0.4 µM) of 0.844. The viability ([17]; 2 µM) was 0.793.
